Results: US5674840A, “Synthetic aglucodalbaheptide antibiotics” (Gruppo Lepetit SpA, priority 1993, dated 1997)

How the values were obtained:
Experiment in all cases: in vitro antibacterial activity, MIC microdilution
[1] = test system: Strep. pneumoniae UC41 (L 44); format: cell-based; conditions: Todd-Wewitt broth, 0.01% bovine serum albumin, 37° C., 18-24 hours
Protocol: (§1) The in vitro antibacterial activity of the compounds is determined by means of standard […] tests in microtiter. Iso-Sensitest broth (Oxoid) is used for all bacteria except streptococci (Todd-Wewitt broth, Difco) and enterococci (Mueller-Hinton, Difco). Broth cultures are diluted so that the final inoculum was about 5×10^5 cfu/ml (colony forming units per ml). All broth microdilution MICs are performed in the presence of 0.01% bovine serum albumin (Pentax fraction V, Sigma).

[2] = test system: Staph. aurevi Tour (L 165); format: cell-based; conditions: Iso-Sensitest broth, 0.01% bovine serum albumin, 37° C., 18-24 hours
Protocol: as §1

[3] = test system: Enterococcus faecalis ATCC 7,080 (L 149); format: cell-based; conditions: Mueller-Hinton broth, 0.01% bovine serum albumin, 37° C., 18-24 hours
Protocol: as §1

[4] = test system: S. epidermidis ATCC 12,228 (L 147); format: cell-based; conditions: Iso-Sensitest broth, 0.01% bovine serum albumin, 37° C., 18-24 hours
Protocol: as §1

[5] = test system: S. epidermidis clin. isol. (L 533); format: cell-based; conditions: Iso-Sensitest broth, 0.01% bovine serum albumin, 37° C., 18-24 hours
Protocol: as §1

[6] = test system: S. haemolyticus clin, isol. (L 602); format: cell-based; conditions: Iso-Sensitest broth, 0.01% bovine serum albumin, 37° C., 18-24 hours
Protocol: as §1

[7] = test system: s. aureus clin. isol. (L 561); format: cell-based; conditions: Iso-Sensitest broth, 0.01% bovine serum albumin, 37° C., 18-24 hours
Protocol: as §1

[8] = test system: E. faecalis clin. isol. (L 502); format: cell-based, Enterococcus faecalis; conditions: for MIC: E. faecalis clin. isol. (L 502), Mueller-Hinton broth, 0.01% bovine serum albumin, 37° C., 18-24 hours
Protocol: as §1

s. aureus Smith (L 819) = format: cell-based; conditions: Iso-Sensitest broth, 0.01% bovine serum albumin, 37° C., 18-24 hours
Protocol: as §1, with “(Todd-[…]” for “(Todd-Wewitt”, “ml).” for “ml). All broth microdilution MICs are performed in the presence of 0.01% bovine serum albumin (Pentax fraction V, Sigma).”

[9] = test system: Strep. pyogenes C203 (L 49); format: cell-based; conditions: Todd-Wewitt broth, 0.01% bovine serum albumin, 37° C., 18-24 hours
Protocol: as §1, with “(Todd-[…]” for “(Todd-Wewitt”, “ml).” for “ml). All broth microdilution MICs are performed in the presence of 0.01% bovine serum albumin (Pentax fraction V, Sigma).”

Row | Compound | MIC [1] [mg/1] | MIC [2] [mg/1] | MIC [3] [mg/1] | MIC [4] [mg/1] | MIC [5] [mg/1] | MIC [6] [mg/1] | MIC [7] [mg/1] | MIC [8] [mg/1] | MIC (s. aureus Smith (L 819)) [mg/1] | MIC [9] [mg/1] | activity against a clinical isolate of Enterococcus faecalis (in words) ([8]; clinical isolate of Enterococcus faecalis)
1 | N[C@H]1C(=O)N[C@@H]2Cc3ccc(c(Cl)c3)Oc3cc4cc(c3O)Oc3ccc(cc3Cl)[C@@H](O)[C@@H]3NC(=O)[C@H](NC(=O)[C@@H]4NC(=O)[C@@H](NC2=O)c2cc(O)cc(c2)Oc2cc1ccc2O)c1ccc(O)c(c1)-c1c(O)cc(O)cc1[C@@H](C(=O)O)NC3=O [teicoplanin aglycon] | 0.13 | 0.13 | 0.13 | 0.06 | 0.016 | 0.25 | 0.13 | > 128 | 0.06 | 0.13 | –
2 | (L-phenylalanyl)^3 -(D-lysyl)^15 -aglucoteicoplanin dalbaheptide methyl ester | 0.13 | 0.13 | 0.5 | 0.13 | 0.13 | 0.5 | 0.06 | 16 | 0.13 | 0.25 | surprisingly active
3 | teicoplanin | 0.13 | 0.13 | 0.13 | 8 | 8 | 32 | 8 | > 128 | 0.25 | 0.13 | –
